Test results published in US20190008810A1, “METHOD FOR PREVENTION, TREATMENT AND ALLEVIATION OF INFECTIOUS DISEASES AND DISORDERS” (REPLICON HEALTH OY, priority 2016, published 2019).

Assays:
[1] = system: seasonal flu or similar infectious disease; type: in vivo, human; details: S1, 2 or 3 times 1×500 mg during work days, before DGA
[2] = system: acute bowels inflammation caused by diverticulitis; experiment: Healing from acute inflammatory bowels disease (diverticulitis) in S4, Example 1e; type: in vivo, human; details: S4, 1000 mg 1-2 times a day, before DGA
Text: In Example 1e the resolution of gastrointestinal tract infection in another subject 4 (S4) has been shown. Like in S1 also in S4 the HO-1 pathway is clearly activated by the DGA Activation. This is indirectly shown by the clear reduction of blood bilirubin in Table 1e. […] During last few years these seldom but acute inflammations in the gastrointestinal tract have been mostly in the colon and caused by inflammation in Colonic diverticula. […] The only functioning therapy for inflammatory bowels disease has been the administration of strong intravenous antibiotics.
Like other tests with unhealthy humans also this test was done because there were no other efficient substances available. When symptoms of increased bowels inflammation/diverticulosis started S4 was on holiday abroad with very difficult access to any specialized doctor not to mention any hospital. […] Simultaneously with inflammatory symptoms and maybe partially enhancing them S4 experienced constipation.
By Saturday night on the 4th day of gradually increasing acute inflammation in the colon, S4 decided to test whether DGA Activation in combination with paracetamol would assist in resolving this already rather serious inflammation. There were no other available options at that moment. This decision was also supported by confidential information received on positive results with S1 (Examples 1b and 1c).
Saturday night at 0737 pm first 260 mg of D-glyceric acid calcium salt mixed into water was taken with 2×500 mg of paracetamol. Another additional 260 mg dose of DGAcs mixed into water was taken the same night at 1020 pm. Altogether the starting dose was 9 mg/kg i.e. relatively high. High initial dose was chosen because of high level of inflammation.

For `CC(=O)Nc1ccc(O)cc1` [paracetamol, reference compound], the “effect on general symptoms and fever” value [1] was “temporary relief but no cure” and the “effect on pains and symptoms” value [2] was “helped to relief pains for 2-3 days but the symptoms got worse”.
